In ChEMBL document CHEMBL1212812, “Multi-target spectral moment QSAR versus ANN for antiparasitic drugs against different parasite species” (Bioorg Med Chem, 2010) one finds IC50 data, which are given here for 104 compounds.

The structures appear in SMILES notation.

The subject of this assay is Plasmodium falciparum. As to the kind of experiment: Antimicrobial activity against Plasmodium falciparum. It is filed as functional, organism-based.
Broadly, the IC50 is the point on the concentration scale where inhibition reaches its midpoint. In the case of `O=C1Nc2ccccc2/C1=C\c1ccc(O)cc1`, the IC50 is 42 µM. That is a double-digit micromolar value.
As for `CC1C2c3ccccc3C(c3ccccc32)C1C(=O)Nc1ccccn1` (centres undefined), the figure is 214 µM; as for `O=C(NCc1ccccc1)C1=CC2c3ccccc3C1c1ccccc12`, 52 µM.
Consider `CC1C2c3ccccc3C(c3ccccc32)C1C[N+](C)(C)C` (centres undefined), for which the half-inhibitory concentration (IC50) turned out to be 17 µM.
As to `CN(C)CC1C2c3ccccc3C(c3ccccc32)C1CO` (centres undefined), the midpoint of inhibition, the IC50, lay at 35 µM.
For `CC1C2c3ccccc3C(c3ccccc32)C1C(=O)Nc1ccncc1` (centres undefined), the half-inhibitory concentration (IC50) was determined as 500 µM.
In the case of `CC1C2c3ccccc3C(c3ccccc32)C1C(=O)/N=C/N(C)C` (centres undefined) it was 49 µM.
As for `Cn1c2nc3ccccc3c-2cc2c(Br)cccc21`, the figure is 32 µM.
The compound `CCc1nc(N)nc(N)c1Cc1ccc(OCc2ccccc2)c(OC)c1` had a half-inhibitory concentration (IC50) of 5 µM.
As for `Cn1c2nc3ccccc3c-2cc2cc(F)ccc21`, the figure is 5 µM.
For `COc1cc(Cc2c(C)nc(N)nc2N)ccc1OCc1ccccc1`, it took 3 µM to reach half-maximal inhibition (IC50).
Consider `CC(=O)/C=C1\C(=O)Nc2ccccc21`, for which half-maximal inhibition (IC50) was put at 37 µM.
In the case of `CC(C)(C)C(=O)/C=C1\C(=O)Nc2ccccc21` it was 44 µM; in that of `N#C/C(C(N)=O)=C1/C(=O)Nc2ccccc21`, 24 µM.
With `CC[C@H]1CN2CCc3c([nH]c4ccc(O)cc34)[C@@H]2C[C@@H]1C[C@H]1c2[nH]c3ccccc3c2CCN1C`, half-maximal inhibition (IC50) was put at 1 µM. Compared with the last compound, the IC50 is about 24-fold lower.
In the case of `C=C[C@H]1CN2CCc3c([nH]c4ccc(O)cc34)[C@@H]2C[C@@H]1C[C@H]1c2[nH]c3ccccc3c2CCN1C` it was 2 µM.
Regarding `CC[C@H]1CN2CCc3c([nH]c4cc(O)ccc34)[C@@H]2C[C@@H]1C[C@H]1c2[nH]c3ccccc3c2CCN1C`, half-maximal inhibition (IC50) was put at 5 µM.
`CC1C2c3ccccc3C(c3ccccc32)C1C(=O)/N=N/N(C)C` (centres undefined) had an IC50 of 51 µM.
For the compound `CC1C2c3ccccc3C(c3ccccc32)C1CN` (centres undefined), the midpoint of inhibition, the IC50, lay at 30 µM.
In turn, `CN(C)/N=N\C(=O)C1C2c3ccccc3C(c3ccccc32)C1C(=O)/N=N/N(C)C` (centres undefined) gave an IC50 of 33 µM.
As for `Cc1nc2cnncc2n1-c1ccc(Cl)cc1C(=O)c1ccccc1Cl`, the figure is 1 µM.
For `CCOC(=O)C1C2c3ccccc3C(c3ccccc32)C1C(=O)N(C)C` (centres undefined), the 50% inhibitory concentration (IC50) is 33 µM.
As for `CN(C)C(=O)C1C2c3ccccc3C(c3ccccc32)C1C(=O)O` (centres undefined), the figure is 36 µM.
`O=C(O)C1C2c3ccccc3C(c3ccccc32)C1CBr` (centres undefined) gave an IC50 of 40 µM. This IC50 and that of the compound before are within 1.5-fold of each other.
As to `CN(C)/C=N\C(=O)C1C2c3ccccc3C(c3ccccc32)C1C(=O)/N=C\N(C)C` (centres undefined), the IC50 is 34 µM.
Regarding `NC(=O)C1=CC2c3ccccc3C1c1ccccc12`, the half-maximal inhibitory concentration (IC50) was 35 µM.
`CN(C)C(=O)C1=CC2c3ccccc3C1c1ccccc12` gave an IC50 of 32 µM.
As for `CC(=O)C1C(=O)Nc2ccccc21` (centres undefined), the figure is 29 µM; as for `Cc1c(O)noc1-c1ccccc1`, 29 µM.
Compound `CCCCCCCCCCCOCCOCCOCCOCCOCCO` returned an IC50 of 68 µM.
In the case of `CCCCCCCCCC[N+](C)(C)CCCS(=O)(=O)[O-]` it was 782 µM; in that of `CCCCCCCCCCCCCCCC[N+](C)(C)CCCS(=O)(=O)[O-]`, 65 µM.
Consider `CCCCCCCCCCO[C@@H]1O[C@H](CO)[C@@H](O)[C@H](O)[C@H]1O`, for which the midpoint of inhibition, the IC50, lay at 233 µM.
In the case of `O=C1Nc2ccccc2/C1=C/C(=O)c1ccc(Br)cc1` it was 4 µM; in that of `O=C1Nc2ccccc2/C1=C/C(=O)c1ccc(F)cc1`, 1 µM.
As for `O=C1NC(=S)S/C1=C1\C(=O)Nc2ccccc21`, the figure is 17 µM.
`O=C1NC(=O)/C(=C2/C(=O)Nc3ccccc32)S1` displayed a half-maximal inhibitory concentration (IC50) of 19 µM.
In the case of `O=C1Nc2ccccc2/C1=C\c1ccc(Cl)cc1` it was 37 µM; in that of `C/N=C/c1c(O)[nH]c2ccccc12`, 57 µM; in that of `CC1(C)CCc2c(c3ccccc3c3nc4ccccc4nc23)O1`, 20 µM.
Compound `C=CCC1Cc2c(c3ccccc3c3nc4ccccc4nc23)OC1(C)C` (centres undefined) registered an IC50 of 20 µM.
With `CC1(C)Oc2c(c3nc4ccccc4nc3c3ccccc23)CC1I` (centres undefined), half-maximal inhibition (IC50) required 2 µM.
As for `NC1=NC(c2cccc(Oc3ccc(Cl)cc3)c2)N(c2cccc(Cl)c2)C(N)=N1` (centres undefined), the figure is 4 µM; as for `NC1=NC(c2cccc(OCCCOc3cc(Cl)c(Cl)cc3Cl)c2)N(c2cccc(Cl)c2)C(N)=N1` (centres undefined), 9 µM; as for `CCCCCCC1(C)N=C(N)N=C(N)N1c1cccc(Cl)c1` (centres undefined), 3 µM.
In the case of `NC1=NC(c2ccc(Oc3ccccc3)cc2)N(c2ccc(Cl)cc2)C(N)=N1` (centres undefined) it was 7 µM.
In the case of `NC1=NC(c2cccc(Oc3ccccc3)c2)N(c2cccc(Cl)c2)C(N)=N1` (centres undefined) it was 4 µM.
For `NC1=NC(c2ccc(Oc3ccccc3)cc2)N(c2cccc(Cl)c2)C(N)=N1` (centres undefined), the half-inhibitory concentration (IC50) was 3 µM.
As for `NC1=NC(c2cccc(Oc3cc(Cl)cc(Cl)c3)c2)N(c2cccc(Cl)c2)C(N)=N1` (centres undefined), the figure is 6 µM; as for `CCN(CC)Cc1cc(Nc2ccnc3cc(Cl)ccc23)ccc1O`, 15 µM.
In the case of `O=C1Nc2ccccc2/C1=C/C(=O)c1ccccc1` it was 4 µM; in that of `CCN(CC)CCCC(C)Nc1ccncc1` (centres undefined), 92 µM.
`Nc1nc(N)c(-c2cccc(Cl)c2)c(CCCc2ccccc2)n1` displayed an IC50 of 6 µM.
In turn, `CCc1nc(N)nc(N)c1Cc1ccc(OCc2ccccc2)c(OCc2ccccc2)c1` gave an IC50 of 3 µM.
In the case of `CC1(C)Oc2c(c3nc4ccccc4nc3c3ccccc23)CC1S(=O)(=O)O` (centres undefined), half-maximal inhibition (IC50) was put at 6 µM. Against the preceding compound, the IC50 is about 2-fold higher.
In the case of `CCc1nc(N)nc(N)c1-c1cccc(Cl)c1` it was 9 µM; in that of `Cc1nc(N)nc(N)c1Cc1ccc(OCc2ccccc2)c(OCc2ccccc2)c1`, 3 µM; in that of `CC(C)=CCc1c(O)c2ccccc2c2nc3ccccc3nc12`, 9 µM.
In turn, `CCCCCCCCCCC(O)(P(=O)(O)O)P(=O)(O)O` returned a concentration for half-maximal inhibition (IC50) of 200 µM.
In the case of `CCCCCC(O)(P(=O)(O)O)P(=O)(O)O` it was 6 µM; in that of `CC(C)(C)c1cc(NC(P(=O)(O)O)P(=O)(O)O)cc(C(C)(C)C)c1`, 200 µM.
In the case of `O=P(O)(O)C(Nc1cccnc1)P(=O)(O)O` it was 200 µM; in that of `CC1C2c3ccccc3C(c3ccccc32)C1C(N)=O` (centres undefined), 32 µM; in that of `CN(C)CC1=C(CN(C)C)C2c3ccccc3C1c1ccccc12`, 3 µM.
As for `CN(C)C1CC2c3ccccc3C1c1ccccc12` (centres undefined), the figure is 9 µM.
Consider `CCOC(=O)C1C2c3ccccc3C(c3ccccc32)C1N(C)C` (centres undefined), for which half-maximal inhibition (IC50) required 30 µM. Against the preceding compound, the IC50 is about 3.3-fold higher.
`CC1C2c3ccccc3C(c3ccccc32)C1CN(C)C` (centres undefined): it took 21 µM to reach half-maximal inhibition (IC50).
`CN(C)C1C2c3ccccc3C(c3ccccc32)C1C(=O)O` (centres undefined) yielded a half-maximal inhibitory concentration (IC50) of 50 µM.
In the case of `NC1=NC(c2ccccc2)N(c2cccc(Cl)c2)C(N)=N1` (centres undefined) it was 1 µM.
In the case of `CCN(CC)Cc1cc(Nc2ccnc3cc(Cl)ccc23)cc(-c2ccc(Cl)cc2)c1F` it was 41 µM; in that of `O=C1Nc2ccccc2/C1=C\c1ccc(C(F)(F)F)cc1`, 4 µM; in that of `O=C1Nc2ccccc2/C1=C\C1CCCCN1` (centres undefined), 21 µM.
Compound `CCOC(=O)/C(C#N)=C1/C(=O)Nc2ccccc21` came in with an IC50 of 42 µM. Compared with the last compound, the IC50 is about 2-fold higher.
As to `O=C1Nc2ccccc2/C1=C\c1c(Cl)cccc1Cl`, the IC50 stood at 17 µM.
In the case of `CCCOc1ccc(C2N=C(N)N=C(N)N2c2cccc(Cl)c2)cc1` (centres undefined) it was 3 µM; in that of `NC1=NC(c2cccc(Oc3cccc(C(F)(F)F)c3)c2)N(c2cccc(Cl)c2)C(N)=N1` (centres undefined), 3 µM.
`CN(C)c1ccc(Nc2c3ccccc3nc3ccccc23)cc1` gave a half-inhibitory concentration (IC50) of 1 µM.
In the case of `NC1=NC(c2cccc(Oc3ccc(Cl)cc3)c2)N(c2ccc(Cl)cc2)C(N)=N1` (centres undefined) it was 4 µM.
`NC1=NC(c2cccc(OCc3ccccc3)c2)N(c2cccc(Cl)c2)C(N)=N1` (centres undefined) had an IC50 of 8 µM.
In the case of `COc1ccc(Nc2c3ccc(N)cc3nc3cc(N)ccc23)cc1` it was 1 µM; in that of `CC[N+](CC)(CC)CCCCCCCC[N+](CC)(CC)CC`, 1 µM.
As for `O=C1Nc2ccc(Br)cc2/C1=C/C(=O)c1ccccc1`, the figure is 3 µM.
As for `CN(C)Cc1ccc(Nc2c3ccc(Cl)cc3nc3cc(Cl)ccc23)cc1`, the figure is 1 µM; as for `NS(=O)(=O)c1ccc(Nc2c3ccc(Cl)cc3nc3cc(Cl)ccc23)cc1`, 7 µM; as for `Cc1ccc(C(=O)/C=C2\C(=O)Nc3ccc(Br)cc32)cc1`, 3 µM.
The compound `Oc1ccc(Nc2ccnc3cc(Cl)ccc23)cc1` gave an IC50 of 19 µM.
As to `CS(=O)(=O)Nc1ccc(Nc2c3ccc(N)cc3nc3cc(N)ccc23)cc1`, inhibition was half-maximal at 1 µM (IC50).
For the compound `CCCCCCCCCCCC(O)(P(=O)(O)O)P(=O)(O)O`, the midpoint of inhibition, the IC50, lay at 1 µM. This counts as single-digit micromolar.
`c1ccc(N2CCN(c3ccccc3)C2c2ccc(N3CCN(c4ccc(C5N(c6ccccc6)CCN5c5ccccc5)cc4)CC3)cc2)cc1`: the half-maximal inhibitory concentration (IC50) came out at 1 µM.
In the case of `CC1C2c3ccccc3C(c3ccccc32)C1C(=O)Nc1cccnc1` (centres undefined) it was 79 µM.
As for `O=P(O)(O)C(Nc1ccc(I)cn1)P(=O)(O)O`, the figure is 200 µM.
With `O=P(O)(O)C(NCCCc1ccccc1)P(=O)(O)O`, the IC50 was determined as 200 µM.
In the case of `CCCCOc1ccc(NC(P(=O)(O)O)P(=O)(O)O)cc1`, half-maximal inhibition (IC50) required 200 µM.
On to `CNc1ccc(Nc2c3ccccc3nc3cc(Cl)ccc23)cc1`, for which the IC50 was found to be 1 µM.
On to `CCN(CC)Cc1cc(Nc2ccncc2)ccc1O`, for which 134 µM corresponded to half-maximal inhibition (IC50).
As for `CN(C)c1ccc(Nc2c3ccccc3nc3cc(Cl)ccc23)cc1`, the figure is 1 µM; as for `Cc1cc(C)nc(NC(P(=O)(O)O)P(=O)(O)O)c1`, 200 µM.
As to `CCCCCCCCCC(O)(P(=O)(O)O)P(=O)(O)O`, it took 1 µM to reach half-maximal inhibition (IC50).
In the case of `CCCCCCC(CCCC)C(O)(P(=O)(O)O)P(=O)(O)O` (centres undefined) it was 200 µM; in that of `CCCCCCC(O)(P(=O)(O)O)P(=O)(O)O`, 4 µM; in that of `Cc1cccc(NC(P(=O)(O)O)P(=O)(O)O)n1`, 200 µM.
`O=P(O)(O)C(Nc1ccc(Cl)nc1)P(=O)(O)O`: the IC50 was 200 µM.
In the case of `CO[C@H]1O[C@@H]2O[C@@]3(C)CC[C@H]4[C@H](C)CC[C@@H]([C@H]1C)[C@@]24OO3` it was 1000 µM; in that of `c1cc(N2CCN(c3ccc(C4OCCO4)cc3)CC2)ccc1C1OCCO1`, 1 µM.
